Columns and labels:
[1] = Critical micelle concentration from surface tension data in aqueous 7% w/w gelatin solution; assay type: physicochemical; conditions: aqueous solution containing 7% wt/wt deionised Type IV bone gelatin
Experimental: (§1) A number of surfactants were tested for their ease of dissolution in water. Furthermore, the critical micelle concentrations (CMCs) of the surfactants were determined in aqueous solution containing 7% weight/weight deionised Type IV bone gelatin. The CMCs were determined from surface tension data by estimating the break point in the plot of surface tension against log concentration (see M. J. Rosen, Surfactants and Interfacial Phenomena, 2nd Edition, Wiley (1989), 110).

[2] = Ease of dissolution of surfactant in water; assay type: physicochemical
Experimental: as §1

| CMC in molar terms (M) moles kg^−1 [1] [M] | Solubility in Water [2] | Substance |
| --- | --- | --- |
| 0.0003 | Requires relatively long stirring | CxF2x+1(CH2)y—(CH2CH2O) z—OH [Zonyl FSN] |
| 6e-05 | Dissolves easily with gentle | Fluoroalkylthiosuccinic acid, Polyethylene glycol diester (II, R=C6F13CH2CH2,p=7) |

From US6482975B1, “Bis-poly(ethylene oxide) surfactants and their use as antistats in photographic materials” (Eastman Kodak Company, priority 1998, dated 2002)
